Laboratory results published in patent publication US9365868B2, “Fermentation process for producing isopropanol using a recombinant microorganism” (LANZATECH NEW ZEALAND LIMITED, priority 2011, dated 2016).

Tests used:
[1] = test system: Clostridium autoethanogenum DSM23693; experiment: Toxicity of acetone and isopropanol on growing cultures; type: cell-based; conditions: at concentrations as high as 5%
Source text: Several metabolites such as alcohols (ethanol and butanol) or acids (acetic acid and butyric acid) are known to be toxic for bacteria in high concentrations and thus limit their biotechnological production [Alsaker K V, Parades C, Papoutsakis E T: Metabolite stress and tolerance in the production of biofuels and chemicals—systems analysis of butanol, butyrate, and Acetate Stresses in the Anaerobe Clostridium acetobutylicum. Biotechnol Bioeng, 2009, 105: 1131-1147]. To see if acetone and isopropanol have a toxic effect on cultures, growth experiments were carried out in 50 ml PETC media (Table 2) in serum bottles, adding different concentrations of acetone (FIG. 12) and isopropanol (FIG. 13) to growing cultures of Clostridium autoethanogenum DSM23693.

[2] = test system: C. autoethanogenum DSM23693; experiment: Bottle growth experiments on CO-containing gas, acetone/isopropanol production from expression plasmids; type: cell-based, Clostridium autoethanogenum; conditions: Organism C. autoethanogenum, Substrate CO; for Acetone (g/L): 'Detected' = by GC qualitatively
Procedure: HPLC analysis of acetone, isopropanol and other metabolites was performed using an Agilent 1100 Series HPLC system equipped with a RID operated at 35° C. (Refractive Index Detector) and an Alltech IOA-2000 Organic acid column (150×6.5 mm, particle size 5 μm) kept at 60° C. Slightly acidified water was used (0.005 M H2SO4) as mobile phase with a flow rate of 0.7 ml/min. To remove proteins and other cell residues, 400 μl samples were mixed with 100 μl of a 2% (w/v) 5-Sulfosalicylic acid and centrifuged at 14,000×g for 3 min to separate precipitated residues. 10 μl of the supernatant were then injected into the HPLC for analyses.
GC analysis of acetone, isopropanol and other metabolites was performed using an Agilent 6890N headspace GC equipped with a Supelco PDMS 100 1 cm fiber, an Alltech EC-1000 (30 m×0.25 mm×0.25 μm) column, and a flame ionization detector (FID). 5 ml samples were transferred into a Hungate tube, heated to 40° C. in a water bath and exposed to the fiber for exactly 5 min. The injector was kept at 250° C. and helium with a constant flow of 1 ml/min was used as carrier gas. The oven program was 40° C. for 5 min, followed by an increase of 10° C./min up to 200° C. The temperature was then further increased to 220° C. with a rate of 50° C./min followed by a 5 min hold this temperature, before the temperature was decreased to 40° C. with a rate of 50° C./min and a final 1 min hold. The FID was kept at 250° C. with 40 ml/min hydrogen, 450 ml/min air and 15 ml/min nitrogen as make up gas.
Growth experiments were carried out with transformed C. autoethanogenum DSM23693 and C. ljungdahlii DSM 13528 carrying plasmid pMTL85147-thlA-ctfAB-adc in 250 ml PETC media (Table 2; without fructose and yeast extract) in 1 l Schott bottles with rubber stoppers and 30 psi steel mill gas (collected from New Zealand Steel site in Glenbrook, NZ; composition: 44% CO, 32% N2, 22% CO2, 2% H2) in the headspace as sole energy and carbon source. Acetone production was confirmed with both strains using HPLC and GC analysis. […] Using appropriate conditions, the produced acetone can then be further converted to isopropanol.
Therefore, both cultures were re-gassed with 30 psi fresh steel-mill gas after 48 h of growth and also re-inoculated. While biomass didn't increase much further, some of the produced acetone got converted into isopropanol within 24 hours (Table 16).
(§1) Constructed expression plasmids pMTL85245-kivd-adh2 and pMTL85245-kivd were transformed into E. coli strain JW3350-2 and prepared for transformation in C. autoethanogenum DSM23693, which was performed as described above. […] In serum bottle experiments, highest isopropanol concentrations from CO-containing steel mill gas were 0.050-0.064 g/L for both expression plasmids (FIGS. 65 and 66).
(§2) All plasmid construct were tested in E. coli and C. autoethanogenum DSM23693 using serum bottle experiments with sugar (E. coli) or CO-containing steel mill gas (C. autoethanogenum) as sole substrate. With all combinations tested, acetone and isopropanol production was measured when expressed heterologously in C. autoethanogenum, while in E. coli acetone production only occurred with few combinations and an alcohol dehydrogenase gene was needed for isopropanol production (Table 21). […] In C. autoethanogenum, acetone and isopropanol production even occurred with expressing the decarboxylase as only heterologous gene, indicating CoA-transferase activity. FIG. 4 illustrates the proposed pathway and Table 21 of acetone and isopropanol formation from CO and FIG. 73 gives an overview of combinations of Clostridial pathway genes and codon-optimized genes for Alpha-ketoacid decarboxylase Kivd from L lactis and Alcohol dehydrogenase Adh2 from S. cerevisiae tested in E. coli and C. autoethanogenum.

E. coli = experiment: Serum bottle experiments with plasmid constructs, sugar as sole substrate; type: cell-based, Escherichia coli; conditions: Organism E. coli, 'Detected' = by GC qualitatively
Procedure: as §1, §2

[3] = test system: Clostridium autoethanogenum DSM23693; experiment: Experiment A: continuous fermentation on steel mill gas; type: cell-based
Procedure: Clostridium autoethanogenum DSM23693 carrying the vector pMTL83147 thl-ctfAB-adc-adh2 was grown at 37° C. under mill gas (50% CO, 18% CO2, 2% H2, and 30% N2) was continuously fed into the bioreactor. The gas flow was initially set at 80 ml/min, increasing to 200 ml/min over the course of the experiment, while the agitation was increased from 250 rpm to 750 rpm. Na2S was dosed into the bioreactor at 0.20 ml/hr, increasing to 0.4 ml/hr. The bioreactor was switched to a continuous mode at a rate of 1.0 ml/min (Dilution rate 0.96 d^−1) once the OD600 reached 0.17.
Metabolites concentrations were measured using Agilent 1100 Series HPLC system equipped with a RID operated at 35° C. (Refractive Index Detector) and an Alltech IOA-2000 Organic acid column (150×6.5 mm, particle size 5 μm) kept at 60° C. The presence of Acetone and Isopropanol was also measured using Agilent 6890N headspace GC equipped with a Supelco PDMS 100 1 cm fiber, an Alltech EC-1000 (30 m×0.25 mm×0.25 μm) column, and a flame ionization detector (FID). The composition of the gas inflows and outflows was measured using a Varian CP-4900 micro GC with two installed channels. Channel 1 was a 10 m Mol-sieve column running at 70° C., 200 kPa argon and a backflush time of 4.2 s, while channel 2 was a 10 m PPQ column running at 90° C., 150 kPa helium and no backflush. The injector temperature for both channels was 70° C. Sampling of metabolites was performed daily. Gas analysis was automated and measured hourly.
The growth and metabolite profile of Clostridium autoethanogenum DSM23693 carrying the vector pMTL83147 thl-ctfAB-adc-adh2 in a continuous fermentation over 31 days is shown in FIG. 75. The fermentation ran as a batch fermentation from inoculation to day 6. At day 7 the fermentation was switched to continuous fermentation. The increase in acetate concentration coupled with a decrease in ethanol concentration during continuous fermentation seems to have triggered a significant increase in isopropanol production. […] A GC sample was taken during the run, at day 19.

[4] = test system: C. autoethanogenum DSM23693; experiment: Experiment B: bioreactor fermentation on corex gas with cell retention; type: cell-based, Clostridium autoethanogenum; conditions: corex gas 40% CO, continuous mode with membrane cell retention
Procedure: Fermentations with C. autoethanogenum DSM23693 carrying the vector pMTL83147 thl-ctfAB-adc-adh2 were carried out in 1.5 L bioreactors at 37° C. and CO-containing steel mill gas. The fermenter was fed with corex gas (40% CO, 15% H2, 15% CO2, 30% N2) as sole energy and carbon source as described below. A defined medium was used containing per litre: MgCl, CaCl2 (0.5 mM), KCl (3 mM), H3PO4 (5 mM), Fe (100 μM), Ni, Zn (5 μM), Mn, B, W, Mo, Se (2 μM) was prepared for culture growth. The media was transferred into the bioreactor and autoclaved at 121° C. for 45 minutes. After autoclaving, the medium was supplemented with Thiamine, Pantothenate (0.05 mg), Biotin (0.02 mg) and reduced with 3 mM Cysteine-HCl. To achieve anaerobic conditions the reactor vessel was sparged with nitrogen through a 0.2 μm filter. […]
Metabolites concentrations were measured using Agilent 1100 Series HPLC system equipped with a RID operated at 35° C. […] The presence of Acetone and Isopropanol was also measured using Agilent 6890N headspace GC equipped with a Supelco PDMS 100 1 cm fiber, an Alltech EC-1000 (30 m×0.25 mm×0.25 μm) column, and a flame ionization detector (FID). The composition of the gas inflows and outflows was measured using a Varian CP-4900 micro GC with two installed channels. […] Gas analysis was automated and measured hourly.

[5] = continuous fermentation over 31 days, mill gas 50% CO

Molecule	inhibition of growth rate [1]	Isopropanol [2]	Acetone (g/L) [2]	Acetone (E. coli)	other results
CC(C)=O [acetone]	only slight inhibition of growth rate	–	–	–	–
CC(C)O [isopropanol]	only slight inhibition of growth rate	–	–	–	–
pMTL83147-thlA-ctfAB-adc-P-kivd-adh2: expression plasmid with thlA, ctfAB, adc and Ppta-ack-kivd-adh2, Seq. ID. 101	–	0.043 g/L	Detected	0.076 g/L	–
pMTL83147-thlA-ctfAB-adc-adh2: expression plasmid with thlA, ctfAB, adc and Adh2 from S. cerevisiae, Seq. ID. No. 98	–	0.648 g/L	Detected	0.040 g/L	presence of the plasmid by PCR ([3]; checked regularly throughout the fermentation): found to be present throughout the fermentation; Isopropanol production rate [3, 5]: 0.7 g per litre per day; isopropanol concentration reached [3, 5]: 0.250 g per litre; isopropanol concentration reached [4]: 0.37 g per Litre
pMTL85147-thlA-ctfAB-adc-kivd: combination plasmid of Clostridial genes and kivd as labelled in Table 21; probably Seq. ID. No. 95	–	0.091 g/L	Detected	–	Acetone (g/L) (E. coli): Detected
